From patent publication US20230097157A1, “Bicyclic Pyridin-2-one and pyrimidin-4-one Derivatives Useful As a Factor XIa Inhibitors” (Janssen Pharmaceutica NV, priority 2021, published 2023)
Where two headings read alike, the source gives them in different places.

What was measured:
Factor XIa = Factor XIa (Homo sapiens, UniProt P03951); assay: Factor XIa inhibition assay (FLINT) utilizing a fluorophore-quencher pair peptide substrate 5Fam-[…]-K5Tamra; type: biochemical; settings: kinetic (KIN) reads; values in nM; read-out: FXIa KIN Inh IC50
From the text: Biological Example 1: Factor XIa Inhibition Assay Utilizing a Fluorophore-Quencher Pair Peptide Substrate A fluorescence intensity (FLINT) based assay was used to monitor inhibition of Factor XIa. The peptide substrate, 5Fam-[…]-K5Tamra (purchased from New England Peptide) was chosen based on the FXI sequence. Conversion of zymogen FXI to its activated form, FXIa, occurs by proteolytic cleavage by […] at two sites, Arg146 and Arg180. The custom peptide used in this assay was based on the Arg146 cleavage site of FXI. The peptide substrate was designed with a fluorophore-quencher pair, where the fluorescence is quenched until FXIa cleaves the 8-mer peptide after the Arg residue.
The Factor XIa FLINT assay was used with the following 5Fam-[…]-K5Tamra assay buffer: 50 mM Tris, pH 7.5, 100 mM NaCl, 5 mM CaCl2, 0.1 mg/mL BSA, 0.03% CHAPS. Assay buffer was prepared by mixing all ingredients fresh. 5Fam-[…]-K5Tamra peptide substrate was first prepared at 10 mM in 100% DMSO, then diluted to 3 mM in 100% DMSO. Assay buffer was then added directly to the 3 mM stock of substrate to prepare the 30 μM 2× working concentration (15 μM final concentration). The 2× Factor XIa stock solution was prepared by diluting 6.562 μM stock in 1× assay buffer for a […].
Test compound(s) were run in an 11-point, 3-fold serial dilution with a final top compound concentration of 100 nM. Final DMSO in assay was 2%. FXIa was preincubated with compound for 30-minutes and then substrate was added to initiate the reaction. The assay was run with kinetic (KIN) reads at 5 min intervals over 30 minutes. […] More specifically, the assay was run as follows: • 100 nL of 0.01 mM test compound was dispensed into black 384-well non-binding Greiner BioOne 784900 plate for 0.1 μM final concentration; • 5 μL of 1× assay buffer was dispensed to column 24 (low control) and 5 μL 2× Factor XIa solution was dispensed to columns 1-23 (column 23 high control); • the plate was centrifuged with a “cover” plate at 500 rpm for 1 min • the plate was pre-incubated for 30 minutes at room temperature with plate covered; • 5 μL of 2×5Fam-[…]-K5Tamra peptide substrate was dispensed into the entire plate, columns 1-24; • the plate was centrifuged with a “cover” plate at 500 rpm for 1 min; • the plate was read monitoring fluorescence intensity on the BMG PHERAStar at room temperature, using fluorescence module 485 nm/520 nm.
(§1) Percent inhibition (IC50) curves were generated per compound tested, and data was analyzed using a 4-parameter logistic fit using GeneData Screener. The relative fluorescence unit (RFU) values were normalized to percent inhibition using the following equation:
% inhibition=((HC−LC)−(compound−LC)/(HC−LC))*100 where LC−low control=mean signal of no Factor XIa or 100% inhibition of Factor XIa; HC−high control=mean signal of Factor XIa+5Fam-[…]-K5Tamra peptide substrate with DMSO only.
(§2) An 11-point dose response curve for the test compound(s) was generated using GENDATA to determine IC50 value based on the following equation:
Y=Bottom+(Top−Bottom)/(1+10^((log IC50−X)*HillSlope)) where Y is the % inhibition in the presence of X inhibitor concentration, Top=high control=mean signal of Factor XIa+5Fam-[…]-K5Tamra peptide substrate with DMSO only; Bottom=low control−mean signal of no Factor XIa or 100% inhibition of Factor XIa; HillSlope−Hill coefficient; and IC50=concentration of compound with 50% inhibition in relation to top/high control.

human plasma kallikrein = human plasma kallikrein (Homo sapiens, UniProt P03952); assay: Kallikrein inhibition assay (FLINT) utilizing a quenched AMC peptide substrate Z-Gly-Pro-Arg-AMC; type: biochemical; settings: kinetic (KIN) reads, read-out: Kallikrein KIN Inh IC50
From the text: Biological Example 2: Kallikrein Inhibition Assay Utilizing a Quenched AMC Peptide Substrate A fluorescence intensity (FLINT) based assay was used to monitor inhibition of human plasma kallikrein. The peptide substrate, Z-Gly-Pro-Arg-AMC (Purchased from Bachem; Catalog #I-1150) was chosen based on its relatively low KM for kallikrein which enables running the assay at lower substrate concentrations to control background fluorescence.
The Kallikrein FLINT assay was used with the following Z-Gly-Pro-Arg-AMC assay buffer: 50 mM Tris, pH 7.5, 100 mM NaCl, 5 mM CaCl2, 0.1 mg/mL BSA, 0.03% CHAPS. Assay buffer was prepared by mixing all ingredients fresh. 2× Z-Gly-Pro-Arg-AMC peptide substrate was prepared by diluting 10 mM stock into 1× assay buffer for a 100 μM working concentration (50 μM final concentration). The 2× kallikrein stock solution was prepared by diluting 14.76 μM stock in 1× assay buffer for a 4 nM working stock solution (2 nM final concentration).
Test compound(s) were run in an 11-point, 3-fold serial dilution with a final top compound concentration of 1 μM. Final DMSO in assay was 2%. Plasma kallikrein was pre-incubated for 30-minute with compound and then 50 μM substrate was added to initiate the reaction. The assay was run with kinetic (KIN) reads at 5 min intervals over 30 minutes. The time course was linear using 2 nM kallikrein greater than 30 minutes. More specifically, the assay was run as follows: • 100 nL of 0.1 mM test compound was dispensed into black 384-well non-binding Greiner BioOne 784900 plate for 1 μM final concentration; • 5 μL of 1× assay buffer was dispensed to columns 24 (low control) and 5 μL 2× human kallikrein enzyme solution was dispensed to columns 1-23 (column 23 high control); • the plate was centrifuged with a “cover” plate at 500 rpm for 1 min • the plate was pre-incubated for 30 minutes at room temperature with plate covered; • 5 μL of 2× Z-Gly-Pro-Arg-AMC peptide substrate was dispensed into the entire plate, columns 1-24; • the plate was centrifuged with a “cover” plate at 500 rpm for 1 min; • the plate was read monitoring fluorescence intensity on the BMG PHERAStar at room temperature, using fluorescence module 340 nm/440 nm.
as §1
% inhibition=((HC−LC)−(compound−LC)/(HC−LC))*100 where LC—low control=mean signal of […] or 100% inhibition of human kallikrein enzyme; HC—high control=mean signal of […]+Z-Gly-Pro-Arg-AMC peptide substrate with DMSO only.
as §2
Y=Bottom+(Top−Bottom)/(1+10^((log IC50−X)*HillSlope)) where Y is the % inhibition in the presence of X inhibitor concentration, Top=high control=mean signal of human kallikrein enzyme+Z-Gly-Pro-Arg-AMC peptide substrate with DMSO only; Bottom=low control−mean signal of no human kallikrein enzyme or 100% inhibition of human kallikrein enzyme; HillSlope−Hill coefficient; and IC50=concentration of compound with 50% inhibition in relation to top/high control.

Chain of human plasma kallikrein (P03952 391-638 limits assumed): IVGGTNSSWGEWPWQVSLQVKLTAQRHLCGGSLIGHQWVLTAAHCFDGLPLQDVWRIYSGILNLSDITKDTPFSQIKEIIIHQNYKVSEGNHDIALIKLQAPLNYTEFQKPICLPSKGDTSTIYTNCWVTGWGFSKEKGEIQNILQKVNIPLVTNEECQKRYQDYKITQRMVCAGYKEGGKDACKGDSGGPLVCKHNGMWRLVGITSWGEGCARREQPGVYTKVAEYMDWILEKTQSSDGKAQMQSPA
Chain of human plasma kallikrein (P03952 20-390 partner limits assumed): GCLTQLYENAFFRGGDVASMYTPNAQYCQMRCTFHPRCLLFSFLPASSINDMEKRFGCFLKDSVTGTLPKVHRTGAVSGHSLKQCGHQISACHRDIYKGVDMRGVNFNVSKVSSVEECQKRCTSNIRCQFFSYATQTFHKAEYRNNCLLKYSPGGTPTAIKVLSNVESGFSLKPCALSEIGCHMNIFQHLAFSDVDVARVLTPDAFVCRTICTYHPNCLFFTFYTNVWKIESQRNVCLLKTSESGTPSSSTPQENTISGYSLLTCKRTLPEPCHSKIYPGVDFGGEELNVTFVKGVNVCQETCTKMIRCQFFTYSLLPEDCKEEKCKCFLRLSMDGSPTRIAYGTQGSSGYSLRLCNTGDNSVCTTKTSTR
Chain of Factor XIa (P03951 388-625 limits assumed): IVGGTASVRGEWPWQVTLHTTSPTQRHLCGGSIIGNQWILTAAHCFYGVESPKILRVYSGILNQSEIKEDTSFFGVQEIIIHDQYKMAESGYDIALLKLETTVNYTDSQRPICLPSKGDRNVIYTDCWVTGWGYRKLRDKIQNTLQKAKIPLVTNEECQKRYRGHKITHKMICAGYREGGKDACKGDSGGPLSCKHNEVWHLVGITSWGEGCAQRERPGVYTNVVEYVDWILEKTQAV
Chain of Factor XIa (P03951 19-387 partner limits assumed): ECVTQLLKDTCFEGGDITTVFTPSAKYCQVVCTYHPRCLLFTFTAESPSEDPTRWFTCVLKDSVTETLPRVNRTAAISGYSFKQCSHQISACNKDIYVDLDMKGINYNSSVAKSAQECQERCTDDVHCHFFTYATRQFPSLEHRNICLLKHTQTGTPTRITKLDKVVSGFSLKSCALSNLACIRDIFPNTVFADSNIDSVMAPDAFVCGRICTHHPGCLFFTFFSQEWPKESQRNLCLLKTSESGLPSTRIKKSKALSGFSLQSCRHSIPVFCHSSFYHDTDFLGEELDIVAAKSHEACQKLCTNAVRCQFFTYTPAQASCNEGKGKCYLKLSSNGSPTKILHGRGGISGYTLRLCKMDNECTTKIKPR

Structure (SMILES)	IC50 (Factor XIa) [nM]	IC50 (human plasma kallikrein; values in nM) [nM]	IC50 (human plasma kallikrein; unit μM) [nM]
Nc1ncc(-c2cnc([C@H]3CC4(CC4)c4cc(-c5c(-n6cnnn6)ccc(Cl)c5F)cc(=O)n43)[nH]2)s1 [Example 17, (R)-3′-(5-(2-Aminothiazol-5-yl)-1H-imidazol-2-yl)-7′-(3-chloro-2-fluoro-6-(1H-tetrazol-1-yl)phenyl)-2′,3′-dihydro-5′H-spiro[cyclopropane-1,1′-indolizin]-5′-one]	890	–	9050
C[C@H]1C[C@@H](c2ncc(-c3c(C#N)cnn3C)[nH]2)n2c1cc(-c1c(-n3cnnn3)ccc(Cl)c1F)cc2=O [Example 14, 5-(2-((1S,3S)-7-(3-Chloro-2-fluoro-6-(1H-tetrazol-1-yl)phenyl)-1-methyl-5-oxo-1,2,3,5-tetrahydroindolizin-3-yl)-1H-imidazol-5-yl)-1-methyl-1H-pyrazole-4-carbonitrile]	189	–	4700
C[C@H]1CC(c2ncc(-c3ccnc(CN)c3)[nH]2)n2c1cc(-c1c(-n3cnnn3)ccc(Cl)c1F)cc2=O (stereo in doubt) [Example 39, (1*S,3*S)-3-(5-(2-(Aminomethyl)pyridin-4-yl)-1H-imidazol-2-yl)-7-(3-chloro-2-fluoro-6-(1H-tetrazol-1-yl)phenyl)-1-methyl-2,3-dihydroindolizin-5(1H)-one]	–	–	> 10000
C[C@H]1C[C@@H](c2ncc(-c3ccc(N)nc3Cl)[nH]2)n2c1cc(-c1c(-n3cnnn3)ccc(Cl)c1F)cc2=O (relative stereo) [Example 57, (1*S,3*S)-3-(5-(6-Amino-2-chloropyridin-3-yl)-1H-imidazol-2-yl)-7-(3-chloro-2-fluoro-6-(1H-tetrazol-1-yl)phenyl)-1-methyl-2,3-dihydroindolizin-5(1H)-one]	–	–	3400
C[C@H]1C[C@@H](c2ncc(-c3ccc(N)nc3Cl)[nH]2)n2c1cc(-c1c(-n3cnnn3)ccc(Cl)c1F)cc2=O [Example 59, (1S,3S)-3-(5-(6-Amino-2-chloropyridin-3-yl)-1H-imidazol-2-yl)-7-(3-chloro-2-fluoro-6-(1H-tetrazol-1-yl)phenyl)-1-methyl-2,3-dihydroindolizin-5(1H)-one]	–	11.6	–

Continued, values first:

IC50 (Factor XIa) [nM]	IC50 (human plasma kallikrein; values in nM) [nM]	IC50 (human plasma kallikrein; unit μM) [nM]	Structure (SMILES)
0.3	14	–	CO[C@@H]1C[C@H](c2ncc(-c3ccc(N)nc3F)[nH]2)n2c1cc(-c1c(-n3cnnn3)ccc(Cl)c1F)cc2=O (relative stereo) [Example 151, (1*R,3*R)-3-(5-(6-Amino-2-fluoropyridin-3-yl)-1H-imidazol-2-yl)-7-(3-chloro-2-fluoro-6-(1H-tetrazol-1-yl)phenyl)-1-methoxy-2,3-dihydroindolizin-5(1H)-one]
0.2	18.3	–	C[C@H]1C[C@@H](c2ncc(-c3ccc(N)nc3Cl)[nH]2)n2c1nc(-c1c(-n3cnnn3)ccc(Cl)c1F)cc2=O (single isomer, unassigned) [Example 142]
0.9	25.9	–	C[C@H]1C[C@@H](c2ncc(-c3ccc(N)nc3F)[nH]2)n2c1nc(-c1c(-n3cnnn3)ccc(Cl)c1F)cc2=O (stereo in doubt) [Example 150, (6S*,8S*)-6-(5-(6-Amino-2-fluoropyridin-3-yl)-1H-imidazol-2-yl)-2-(3-chloro-2-fluoro-6-(1H-tetrazol-1-yl)phenyl)-8-methyl-7,8-dihydropyrrolo[1,2-a]pyrimidin-4(6H)-one]
0.5	3	–	COC(=O)Nc1ccc(-c2cnc([C@@H]3C[C@H](C)c4nc(-c5c(-n6cnnn6)ccc(Cl)c5F)cc(=O)n43)[nH]2)cc1 (stereo in doubt) [Example 125, Methyl (4-(2-((6*S,8*S)-2-(3-Chloro-2-fluoro-6-(1H-tetrazol-1-yl)phenyl)-8-methyl-4-oxo-4,6,7,8-tetrahydropyrrolo[1,2-a]pyrimidin-6-yl)-1H-imidazol-5-yl)phenyl)carbamate]
190	723	–	COC(=O)Nc1ccc(-c2cnc([C@H]3C[C@@H](C)c4nc(-c5c(-n6cnnn6)ccc(Cl)c5F)cc(=O)n43)[nH]2)cc1 (stereo in doubt) [Example 127, Methyl (4-(2-((6*R,8*R)-2-(3-Chloro-2-fluoro-6-(1H-tetrazol-1-yl)phenyl)-8-methyl-4-oxo-4,6,7,8-tetrahydropyrrolo[1,2-a]pyrimidin-6-yl)-1H-imidazol-5-yl)phenyl)carbamate]
7.3	42.9	–	CC(C)(O)COc1nccc(-c2cnc(C3CC4(CC4)c4nc(-c5c(-n6cnnn6)ccc(Cl)c5F)cc(=O)n43)[nH]2)c1F (single isomer, unassigned) [Example 70, (R*)-2′-(3-Chloro-2-fluoro-6-(1H-tetrazol-1-yl)phenyl)-6′-(5-(3-fluoro-2-(2-hydroxy-2-methylpropoxy)pyridin-4-yl)-1H-imidazol-2-yl)-6′,7′-dihydro-4′H-spiro[cyclopropane-1,8′-pyrrolo[1,2-a]pyrimidin]-4′-one]
–	97.6	–	O=c1cc(-c2c(-n3cnnn3)ccc(Cl)c2F)nc2n1C(c1ncc(-c3ccnc(C4(O)CC4)c3F)[nH]1)CC21CC1 (single isomer, unassigned) [Example 75, (R*)-2′-(3-Chloro-2-fluoro-6-(1H-tetrazol-1-yl)phenyl)-6′-(5-(3-fluoro-2-(1-hydroxycyclopropyl)pyridin-4-yl)-1H-imidazol-2-yl)-6′,7′-dihydro-4′H-spiro[cyclopropane-1,8′-pyrrolo[1,2-a]pyrimidin]-4′-one]
